Patent publication US8399462B2, “JNK modulators” (Roche Palo Alto LLC, priority 2006, dated 2013)

melting point	SMILES
152 to 153 °C	CS(=O)(=O)CCCOc1cccc2c1ccn2-c1ccnc(N[C@H]2CC[C@H](C(=O)N3CC(O)C3)CC2)n1 [Compound 223, (3-hydroxy-azetidin-1-yl)-(4-{4-[4-(3-methane-sulfonyl-propoxy)-indol-1-yl]-pyrimidin-2-ylamino}-cyclohexyl)-methanone]
247 to 249.6 °C	CC(C)(O)c1cccc2c1ccn2-c1ccnc(N[C@H]2CC[C@H](NS(C)(=O)=O)CC2)n1 [Compound 117, N-(4-{4-[4-(1-hydroxy-1-methylethyl)-indol-1-yl]-pyrimidin-2-yl-amino}-cyclohexyl)-methanesulfonamide]
134.8 to 137.3 °C	COCc1cccc2c1ccn2-c1ccnc(N[C@H]2CC[C@H](O)CC2)n1 [Compound 102, 4-[4-(4-methoxymethyl-indol-1-yl)-pyrimidin-2-ylamino]-cyclohexanol]
178 to 179 °C	NS(=O)(=O)CCCOc1cccc2c1cnn2-c1ccnc(N[C@H]2CC[C@H](C(=O)N3CC[C@@H](O)C3)CC2)n1 (stereo in doubt) [Compound 253, 3-(1-{2-[4-(3-hydroxy-pyrrolidine-1-carbonyl)-cyclohexylamino]-pyrimidin-4-yl}-1H-indazol-4-yloxy)-propane-1-sulfonic acid amide]
213.5 to 214.2 °C	CN([C@H]1CC[C@H](Nc2nccc(-c3noc4c(OCCCS(C)(=O)=O)cccc34)n2)CC1)S(C)(=O)=O [Compound 310, N-(4-{4-[7-(3-methane-sulfonyl-propoxy)-benzo[d]isoxazol-3-yl]-pyrimidin-2-ylamino}-cyclohexyl)-N-methyl-methanesulfonamide]
215 to 216 °C	CC(=O)N[C@H]1CC[C@H](Nc2nccc(-n3ncc4c(OC[C@@H](C)CO)cccc43)n2)CC1 (stereo in doubt) [Compound 172, N-(4-{4-[4-(3-hydroxy-2-methylpropoxy)-indazol-1-yl]-pyrimidin-2-ylamino}-cyclohexyl)-acetamide]
200 to 201 °C	CS(=O)(=O)CCCOc1cccc2c1cnn2-c1ccnc(N[C@H]2CC[C@H](C(=O)c3ccccn3)CC2)n1 [Compound 256, (4-{4-[4-(3-methane-sulfonyl-propoxy)-indazol-1-yl]-pyrimidin-2-ylamino}-cyclohexyl)-pyrid-2-yl-methanone]
> 300 °C	Cl.N[C@H]1CC[C@H](Nc2nccc(-n3ccc4c(F)cccc43)n2)CC1
247 to 248 °C	CS(=O)(=O)CCCOc1cccc2c1cnn2-c1ccnc(N[C@H]2CC[C@H](NS(C)(=O)=O)CC2)n1 [Compound 156, N-(4-{4-[4-(3-methane-sulfonyl-propoxy)-indazol-1-yl]-pyrimidin-2-ylamino}-cyclohexyl)-methanesulfonamide]
92 to 93 °C	COC[C@@H]1CCCN1C(=O)[C@H]1CC[C@H](Nc2nccc(-n3ccc4c(OCCCS(C)(=O)=O)cccc43)n2)CC1 (stereo in doubt) [Compound 266, (4-{4-[4-(3-methane-sulfonyl-propoxy)-indol-1-yl]-pyrimidin-2-ylamino}-cyclohexyl)-(2-methoxymethyl-pyrrolidin-1-yl)-methanone]
121 to 122 °C	COC1CCCN(C(=O)[C@H]2CC[C@H](Nc3nccc(-n4ccc5c(OCCCS(C)(=O)=O)cccc54)n3)CC2)C1 (stereo partly shown) [Compound 263, (4-{4-[4-(3-methane-sulfonyl-propoxy)-indol-1-yl]-pyrimidin-2-ylamino}-cyclohexyl)-(3-methoxy-piperidin-1-yl)-methanone]
292 to 293 °C	CS(=O)(=O)CCCOc1cccc2c1ccn2-c1ccnc(N[C@H]2CC[C@H](CN)CC2)n1.Cl
219 to 221 °C	CN(C)C1CCN(C(=O)[C@H]2CC[C@H](Nc3nccc(-n4cc(C(N)=O)c5ccccc54)n3)CC2)CC1 [Compound 295, 1-{2-[4-(4-dimethylamino-piperidine-1-carbonyl)-cyclohexylamino]-pyrimidin-4-yl}-1H-indole-3-carboxylic acid amide]
